Source: publication PMC12624743 (ACS Infectious Diseases, 2025)

Experiments:
[1] = system: N. gonorrhoeae FA1090 (ATCC 700825); test: MIC by agar dilution, parental strain FA1090; format: cell-based; details: Neisseria gonorrhoeae, ATCC700825, parental strain FA1090, GyrA WT / ParC WT
Experimental: A series of isogenic N. gonorrhoeae strains was constructed that carried the specific target mutations GyrA^A92T or GyrA^D90N either alone or in combination with ParC^D86N or GyrA^S91F/D95G in a ciprofloxacin-susceptible strain, FA1090 (ATCC 700825).
All N. gonorrhoeae isolates were cultured and grown on GC agar plates or in fastidious broth (Remel, 07664). Minimum inhibitory concentration (MIC) of test compounds was determined by an agar dilution method, the reference testing method for N. gonorrhoeae according to the standards of the Clinical and Laboratory Standards Institute and the CDC. MIC values were determined after incubation at 37 °C for 48 h in 5% CO2.

[2] = system: WT N. gonorrhoeae topoisomerase IV; test: Topoisomerase IV-catalyzed DNA decatenation assay, WT; format: biochemical, Neisseria gonorrhoeae; details: decatenation IC50 vs supercoiling IC50, WT enzymes
Experimental: All proteins were His-tagged. N. gonorrhoeae WT gyrase (GyrA, GyrB) and topoisomerase IV (ParC, ParE) subunits as well as mutant GyrA^D90N, GyrA^A92T, GyrA^S91F, and GyrA^S91F/D95G gyrase and ParC^D86N and ParC^S88P topoisomerase IV were prepared as described previously. , N. gonorrhoeae mutant GyrA^D95G gyrase and mutant ParC^S87N and ParC^E91G topoisomerase IV were generated using a QuickChange II XL site-directed mutagenesis kit (Agilent Technologies) with custom primers for the desired mutations. Mutant N. gonorrhoeae GyrA and ParC subunits were expressed and purified as described by Ashley et al. with the following modifications to optimize protein expression and lysis: (1) GyrA^D95G was expressed for 2.5 h and ParC^S87N and ParC^E91G were expressed for 3 h before harvesting, and (2) cells were lysed by sonication using a digital sonifier (Branson). The identities of all constructs were confirmed by DNA sequencing, and all enzymes were stored at −80 °C. In all assays, N. gonorrhoeae gyrase or topoisomerase IV was used as a 1:1 GyrA:GyrB or ParC:ParE mixture, respectively, and the stated enzyme concentration reflects that of the holoenzyme (A2B2). […]

For `O=c1ccc2ncc(=O)n3c2n1C[C@H]3CN1CCC(NCc2cc3c(cn2)OCCC3)CC1` [gepotidacin], the MIC [1] was 0.125 µg/mL and the “fold greater potency (IC50) against topoisomerase IV over gyrase” value [2] was roughly 2.8 fold.
